Columns and labels:
[1] = tested on: T1, L-arginine oxidase (ArgO); test: colorimetric H2O2 detection with gCuHCF and o-dianisidine, Lineweaver-Burke; type: biochemical, Amanita phalloides; details: enzyme in solution; coupled to gCuHCF peroxidase mimic
T1 construct: native, purified from the mushroom by the authors' method
From the text: colorimetric H2O2 detection with gCuHCF and o-dianisidine, Lineweaver-Burke on L-arginine oxidase (ArgO) | kinetic constants of ArgO in the ArgO/gCuHCF/o-DZ method with respect to Arg

[2] = target: T2, flavocytochrome b2 (Fcb2) (Ogataea polymorpha, UniProt A0A9P8PNE1); test: cyclic voltammetry and chronoamperometry, Fcb2 in gCuHCF on graphite electrode; type: biochemical
T2 construct: gene OGATHE_001663
T2 sequence (A0A9P8PNE1 55-553): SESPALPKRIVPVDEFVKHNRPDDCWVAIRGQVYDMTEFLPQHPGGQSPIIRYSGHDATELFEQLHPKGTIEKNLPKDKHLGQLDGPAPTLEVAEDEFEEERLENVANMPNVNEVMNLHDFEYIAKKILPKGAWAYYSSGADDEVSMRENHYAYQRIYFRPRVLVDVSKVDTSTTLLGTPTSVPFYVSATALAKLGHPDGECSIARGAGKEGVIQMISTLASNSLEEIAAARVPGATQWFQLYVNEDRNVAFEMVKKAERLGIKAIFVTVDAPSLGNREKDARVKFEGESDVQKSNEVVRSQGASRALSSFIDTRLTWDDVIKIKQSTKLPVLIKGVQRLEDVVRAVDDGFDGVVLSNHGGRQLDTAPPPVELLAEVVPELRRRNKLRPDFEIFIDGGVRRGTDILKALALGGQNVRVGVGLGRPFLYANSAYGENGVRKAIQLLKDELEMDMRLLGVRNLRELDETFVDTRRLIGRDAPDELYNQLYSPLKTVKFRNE

SMILES | Km [1] [µM] | cyclic voltammetry and chronoamperometry, Fcb2 in gCuHCF on graphite electrode [2]
N=C(N)NCCC[C@H](N)C(=O)O [L-arginine] | 300 | –
C[C@H](O)C(=O)O [L-lactate] | – | current output on lactate addition correlates with Fcb2 activity in the sensing layer

— paper PMC11940147, “Copper Hexacyanoferrates Obtained via Flavocytochrome b2 Assistance: Characterization and Application” (Biosensors, 2025)
